From publication PMC10220883, “Relating Molecular Dynamics Simulations to Functional Activity for Gly-Rich Membranolytic Helical Kiadin Peptides” (Pharmaceutics, 2023)
No end group written: not given here.

Columns and labels:
[1] = test system: MEC-1 chronic lymphocytic leukaemia cell line; test: MTT cytotoxicity assay; format: cell-based, human; parameters: Cytotoxicity MEC-1 (qualitative score): key to the marks not given beside the values; details: for IC50 MEC-1 cells: tested range 5 to 50 µM
Description: Cytotoxicity was also assessed on a human lymphocytic cell line by using the 3-(4,5-dimethylthiazol-2-yl)-2,5-diphenyl tetrazolium bromide (MTT) assay. The MEC-1 chronic lymphocytic leukaemia cell line was kindly provided by Prof. P. Macor (Department of Life Sciences, University of Trieste, IT). MEC-1 cells were cultured in RPMI 1640 complete medium supplemented with 2 mM L-glutamine, 100 U/mL penicillin, 100 µg/mL streptomycin and 10% foetal bovine serum (FBS) and were subcultured two/three times a week for not more than 20 passages. The colorimetric MTT assay was performed to assess the metabolic activity of cells plated onto 96-well culture plates (10^5 cells/well, V^f = 100 µL) that had been exposed to 5 to 50 µM kiadins for 24 h. Twenty microlitres of a stock MTT solution (5 mg/mL) were added to each well after 20 h and left to incubate for the remaining 4 h. The converted MTT dye was then solubilized with acidic isopropanol (0.04 N HCl in absolute isopropanol). Absorbance was measured at 540 and 630 nm using an automated microplate reader (EL311, BIO-TEK® Instruments, Charlotte, VT, USA). All measurements were carried out at least in triplicate. An IC50 value was estimated as the concentration of peptide causing a 50% decrease in viability, calculated using GraphPad Prism software.

[2] = test system: Escherichia coli ATCC 25922; parameters: method as in PMID 29553266; details: cited from earlier work; for E. coli MIC: microdilution, Mueller–Hinton broth, 5 × 10^5 CFU/mL, overnight 37 °C, no visual growth; for E. coli MBC: no visible growth on MH agar after 18 h at 37 °C of aliquots from MIC, 2 × MIC, 4 × MIC wells
[3] = test system: Staphylococcus aureus ATCC 25923; parameters: method as in PMID 29553266; details: cited from earlier work; for S. aureus MIC: microdilution, Mueller–Hinton broth, 5 × 10^5 CFU/mL, overnight 37 °C, no visual growth; for S. aureus MBC: no visible growth on MH agar after 18 h at 37 °C of aliquots from MIC, 2 × MIC, 4 × MIC wells
[4] = test system: human red blood cells (RBC); details: cited from earlier work; for HC50 (haemolytic activity, text): 0.5% human erythrocytes in PBS
[5] = test system: human red blood cells (RBC); test: Haemolytic activity assay; format: cell-based; parameters: key to the marks not given beside the values
Description: Haemolytic activity was previously reported by Roncevic et al. and was evaluated by incubating 0.5% erythrocytes provided by an informed healthy donor with serially diluted peptides in 96-well microtiter plates. Haemoglobin release was monitored at 450 nm. Triton-X was used as a positive control, and the incubation of red blood cells in PBS without peptides was the negative control. A HC50 value was calculated as the concentration causing 50% haemolysis.

[6] = Surface plasmon resonance binding to immobilized liposomes; details: SPR, L1 chip with DOPC LUVs, PBS, 0.5 to 16 μM peptide, affinity-steady state model; estimated; repeated three times; read-out: KD (equilibrium dissociation constant)
Description: Large unilamellar vesicles (LUVs) were prepared as described by Morgera et al.. Briefly, dry 1,2-dioleoyl-sn-glycero-3-phosphocholine (DOPC) or phosphatidylglycerol:diphosphatidylglycerol (DPPG) was dissolved in chloroform/methanol (2:1) solution, then evaporated using a dry nitrogen stream and vacuum-dried for 24 h. The liposome cake was resuspended in 1 mL of sodium phosphate buffer (SPB) to a concentration of 5 mM phospholipid and spun for 1 h at 40 °C. The vesicles were then subjected to several freeze–thaw cycles before passing through a mini-extruder (Avanti Polar Lipids, Alabaster, AL, USA) with successive polycarbonate filters having 1, 0.4 and 0.1 μm pores before resuspending to a final phospholipid concentration of 0.4 mM. By calculating the surface area of a ∼100 nm liposome and taking into account the average area of a phospholipid headgroup (∼0.7 nm^2) (similar to the value determined in MD simulations), the concentration of the liposomes was estimated to be about 5 nM.
Peptide–membrane interactions were studied using an X-100 instrument (Biacore, GE Lifesciences). LUVs were prepared using DOPC as described above. The extruded unilamellar LUVs were then diluted to result in ~1 mM phospholipid in PBS. The L1 sensor chip was preconditioned and loaded with the LUVs, as described previously. […]

H-KIAKGALKALKIAKGALKAL-NH2 [kiadin-3]
MEC-1 IC50 (concentration causing 50% decrease in viability) ([1]; MTT, 10^5 cells/well, 5 to 50 µM peptide, 24 h, RPMI 1640 with 10% FBS, at least triplicate): >50 µM | IC50 MEC-1 cells ([1]; MTT, 24 h): > 50 µM | E. coli MIC [2]: 4 mM | E. coli MBC [2]: 16 mM | S. aureus MIC [3]: 16 to 32 mM | S. aureus MBC [3]: 32 mM | HC50 (haemolytic activity, text) [4]: about 95 μM

H-KIALKALKALKALGKALKAL-NH2 [kiadin-6]
E. coli MIC [2]: 1 to 2 mM | E. coli MBC [2]: 2 to 4 mM | S. aureus MIC [3]: 4 mM | S. aureus MBC [3]: 4 mM

KIAKGALKALKIAKVALKAL-NH2 [kiadin-2]
Cytotoxicity RBC (qualitative score) [5]: ++ | Cytotoxicity MEC-1 (qualitative score) [1]: ++ | E. coli MIC [2]: 0.25 to 0.5 mM | E. coli MBC [2]: 0.5 to 1 mM | S. aureus MIC [3]: 8 to 16 mM | S. aureus MBC [3]: 8 to 16 mM

KIAGKAGKIAKIAGKAGKIA-NH2 [kiadin-5]
E. coli MIC [2]: >64 mM | E. coli MBC [2]: >64 mM | S. aureus MIC [3]: >64 mM | S. aureus MBC [3]: >64 mM | Haemolytic activity (in words) ([4]; 0.5% human erythrocytes, up to highest tested concentration): not to be haemolytic up to the highest tested concentration

KIAKVALKALKIAKVALKAL-NH2 [diPGLa-H]
IC50 MEC-1 cells ([1]; MTT, 24 h): 9 ± 3 µM | Kd [6]: ~5 µM | E. coli MIC [2]: 1.5 mM | E. coli MBC [2]: 1.5 mM | S. aureus MIC [3]: 0.75 mM | S. aureus MBC [3]: 1.5 mM | HC50 (haemolytic activity, text) [4]: about 22 μM

H-KIGKALGKALKALGKALGKA-NH2 [kiadin-4]
E. coli MIC [2]: 8 mM | E. coli MBC [2]: 16 mM | S. aureus MIC [3]: 16 to 32 mM | S. aureus MBC [3]: 32 mM

H-KIAKVALKALKIAKGALKAL-NH2 [kiadin-1]
Cytotoxicity RBC (qualitative score) [5]: +++ | Cytotoxicity MEC-1 (qualitative score) [1]: +++ | E. coli MIC [2]: 0.75 mM | E. coli MBC [2]: 0.75 mM | S. aureus MIC [3]: 0.5 to 1 mM | S. aureus MBC [3]: 1.5 mM
